In ChEMBL document CHEMBL6120977, “Structure-Affinity-Pharmacokinetics Relationships of Novel 18F-Labeled 1,4-Diazepane Derivatives for Orexin 1 Receptor Imaging” (J Med Chem, 2024):

Experiments:
[1] = Biodistribution in male ddY mouse kidney administered intravenously and measured at 2 mins postinjection by gamma counter analysis; assay type: ADME, organism-based; conditions: in vivo, iv
[2] = Biodistribution in male ddY mouse spleen administered intravenously and measured at 10 mins postinjection by gamma counter analysis; assay type: ADME, organism-based; conditions: in vivo, iv
[3] = Biodistribution in male ddY mouse liver administered intravenously and measured at 10 mins postinjection by gamma counter analysis; assay type: ADME, organism-based; conditions: in vivo, iv
[4] = Biodistribution in male ddY mouse intestine administered intravenously and measured at 2 mins postinjection by gamma counter analysis; assay type: ADME, organism-based; conditions: in vivo, iv
[5] = Biodistribution in male ddY mouse bone administered intravenously and measured at 10 mins postinjection by gamma counter analysis; assay type: ADME, organism-based, Bone element; conditions: in vivo, iv
[6] = Biodistribution in male ddY mouse kidney administered intravenously and measured at 30 mins postinjection by gamma counter analysis; assay type: ADME, organism-based; conditions: in vivo, iv, 0.5 h
[7] = Biodistribution in male ddY mouse spleen administered intravenously and measured at 60 mins postinjection by gamma counter analysis; assay type: ADME, organism-based; conditions: in vivo, iv, 1 h
[8] = Biodistribution in male ddY mouse pancreas administered intravenously and measured at 60 mins postinjection by gamma counter analysis; assay type: ADME, organism-based; conditions: in vivo, iv, 1 h
[9] = Biodistribution in male ddY mouse pancreas administered intravenously and measured at 30 mins postinjection by gamma counter analysis; assay type: ADME, organism-based; conditions: in vivo, iv, 0.5 h
[10] = Biodistribution in male ddY mouse stomach administered intravenously and measured per organ at 2 mins postinjection by gamma counter analysis; assay type: ADME, organism-based; conditions: in vivo, iv
[11] = Biodistribution in male ddY mouse brain administered intravenously and measured at 2 mins postinjection by gamma counter analysis; assay type: ADME, organism-based; conditions: in vivo, iv
[12] = Biodistribution in male ddY mouse heart administered intravenously and measured at 10 mins postinjection by gamma counter analysis; assay type: ADME, organism-based; conditions: in vivo, iv
[13] = Biodistribution in male ddY mouse brain administered intravenously and measured at 60 mins postinjection by gamma counter analysis; assay type: ADME, organism-based; conditions: in vivo, iv, 1 h
[14] = Biodistribution in male ddY mouse stomach administered intravenously and measured per organ at 30 mins postinjection by gamma counter analysis; assay type: ADME, organism-based; conditions: in vivo, iv, 0.5 h
[15] = Biodistribution in male ddY mouse heart administered intravenously and measured at 2 mins postinjection by gamma counter analysis; assay type: ADME, organism-based; conditions: in vivo, iv
[16] = Biodistribution in male ddY mouse spleen administered intravenously and measured at 30 mins postinjection by gamma counter analysis; assay type: ADME, organism-based; conditions: in vivo, iv, 0.5 h
[17] = Biodistribution in male ddY mouse kidney administered intravenously and measured at 60 mins postinjection by gamma counter analysis; assay type: ADME, organism-based; conditions: in vivo, iv, 1 h
[18] = Biodistribution in male ddY mouse intestine administered intravenously and measured at 30 mins postinjection by gamma counter analysis; assay type: ADME, organism-based; conditions: in vivo, iv, 0.5 h
[19] = Biodistribution in male ddY mouse brain administered intravenously and measured at 30 mins postinjection by gamma counter analysis; assay type: ADME, organism-based; conditions: in vivo, iv, 0.5 h
[20] = Biodistribution in male ddY mouse brain administered intravenously and measured at 10 mins postinjection by gamma counter analysis; assay type: ADME, organism-based; conditions: in vivo, iv
[21] = Biodistribution in male ddY mouse spleen administered intravenously and measured at 2 mins postinjection by gamma counter analysis; assay type: ADME, organism-based; conditions: in vivo, iv
[22] = Biodistribution in male ddY mouse blood administered intravenously and measured at 60 mins postinjection by gamma counter analysis; assay type: ADME, organism-based; conditions: in vivo, iv, 1 h
[23] = Biodistribution in male ddY mouse liver administered intravenously and measured at 60 mins postinjection by gamma counter analysis; assay type: ADME, organism-based; conditions: in vivo, iv, 1 h
[24] = Biodistribution in male ddY mouse stomach administered intravenously and measured per organ at 60 mins postinjection by gamma counter analysis; assay type: ADME, organism-based; conditions: in vivo, iv, 1 h
[25] = Biodistribution in male ddY mouse heart administered intravenously and measured at 30 mins postinjection by gamma counter analysis; assay type: ADME, organism-based; conditions: in vivo, iv, 0.5 h
[26] = Biodistribution in male ddY mouse blood administered intravenously and measured at 30 mins postinjection by gamma counter analysis; assay type: ADME, organism-based; conditions: in vivo, iv, 0.5 h
[27] = Biodistribution in male ddY mouse blood administered intravenously and measured at 10 mins postinjection by gamma counter analysis; assay type: ADME, organism-based; conditions: in vivo, iv
[28] = Biodistribution in male ddY mouse intestine administered intravenously and measured at 10 mins postinjection by gamma counter analysis; assay type: ADME, organism-based; conditions: in vivo, iv
[29] = Biodistribution in male ddY mouse intestine administered intravenously and measured at 60 mins postinjection by gamma counter analysis; assay type: ADME, organism-based; conditions: in vivo, iv, 1 h
[30] = Biodistribution in male ddY mouse pancreas administered intravenously and measured at 2 mins postinjection by gamma counter analysis; assay type: ADME, organism-based; conditions: in vivo, iv
[31] = Biodistribution in male ddY mouse liver administered intravenously and measured at 2 mins postinjection by gamma counter analysis; assay type: ADME, organism-based; conditions: in vivo, iv
[32] = Biodistribution in male ddY mouse kidney administered intravenously and measured at 10 mins postinjection by gamma counter analysis; assay type: ADME, organism-based; conditions: in vivo, iv
[33] = Biodistribution in male ddY mouse bone administered intravenously and measured at 30 mins postinjection by gamma counter analysis; assay type: ADME, organism-based, Bone element; conditions: in vivo, iv, 0.5 h
[34] = Biodistribution in male ddY mouse lung administered intravenously and measured at 10 mins postinjection by gamma counter analysis; assay type: ADME, organism-based; conditions: in vivo, iv
[35] = Biodistribution in male ddY mouse lung administered intravenously and measured at 30 mins postinjection by gamma counter analysis; assay type: ADME, organism-based; conditions: in vivo, iv, 0.5 h
[36] = Biodistribution in male ddY mouse bone administered intravenously and measured at 2 mins postinjection by gamma counter analysis; assay type: ADME, organism-based, Bone element; conditions: in vivo, iv
[37] = Biodistribution in male ddY mouse bone administered intravenously and measured at 60 mins postinjection by gamma counter analysis; assay type: ADME, organism-based, Bone element; conditions: in vivo, iv, 1 h
[38] = Biodistribution in male ddY mouse heart administered intravenously and measured at 60 mins postinjection by gamma counter analysis; assay type: ADME, organism-based; conditions: in vivo, iv, 1 h
[39] = Biodistribution in male ddY mouse lung administered intravenously and measured at 2 mins postinjection by gamma counter analysis; assay type: ADME, organism-based; conditions: in vivo, iv
[40] = Biodistribution in male ddY mouse blood administered intravenously and measured at 2 mins postinjection by gamma counter analysis; assay type: ADME, organism-based; conditions: in vivo, iv
[41] = Biodistribution in male ddY mouse lung administered intravenously and measured at 60 mins postinjection by gamma counter analysis; assay type: ADME, organism-based; conditions: in vivo, iv, 1 h
[42] = Biodistribution in male ddY mouse pancreas administered intravenously and measured at 10 mins postinjection by gamma counter analysis; assay type: ADME, organism-based; conditions: in vivo, iv
[43] = Biodistribution in male ddY mouse stomach administered intravenously and measured per organ at 10 mins postinjection by gamma counter analysis; assay type: ADME, organism-based; conditions: in vivo, iv
[44] = Biodistribution in male ddY mouse liver administered intravenously and measured at 30 mins postinjection by gamma counter analysis; assay type: ADME, organism-based; conditions: in vivo, iv, 0.5 h

Cc1ccc(-n2nccn2)c(C(=O)N2CCCN(c3nc4cc([18F])ccc4s3)C[C@@H]2C)c1
Drug uptake [1]: 11.9 % ID/g
Drug uptake [2]: 4.09 % ID/g
Drug uptake [3]: 30.6 % ID/g
Drug uptake [4]: 3.5 % ID/g
Drug uptake [5]: 8.73 % ID/g
Drug uptake [6]: 4.53 % ID/g
Drug uptake [7]: 0.45 % ID/g
Drug uptake [8]: 0.53 % ID/g
Drug uptake [9]: 1.47 % ID/g
Drug uptake [10]: 2.38 %ID
Drug uptake [11]: 3.81 % ID/g
Drug uptake [12]: 10.2 % ID/g
Drug uptake [13]: 0.15 % ID/g
Drug uptake [14]: 1.58 %ID
Drug uptake [15]: 9.03 % ID/g
Drug uptake [16]: 1.43 % ID/g
Drug uptake [17]: 1.64 % ID/g
Drug uptake [18]: 11.6 % ID/g
Drug uptake [19]: 0.39 % ID/g
Drug uptake [20]: 1.49 % ID/g
Drug uptake [21]: 4.4 % ID/g
Drug uptake [22]: 0.64 % ID/g
Drug uptake [23]: 4.12 % ID/g
Drug uptake [24]: 1.97 %ID
Drug uptake [25]: 2.19 % ID/g
Drug uptake [26]: 2.2 % ID/g
Drug uptake [27]: 3.87 % ID/g
Drug uptake [28]: 8.75 % ID/g
Drug uptake [29]: 15.3 % ID/g
Drug uptake [30]: 8.33 % ID/g
Drug uptake [31]: 17.2 % ID/g
Drug uptake [32]: 7.95 % ID/g
Drug uptake [33]: 25.8 % ID/g
Drug uptake [34]: 5.68 % ID/g
Drug uptake [35]: 2.6 % ID/g
Drug uptake [36]: 2.51 % ID/g
Drug uptake [37]: 37.8 % ID/g
Drug uptake [38]: 0.7 % ID/g
Drug uptake [39]: 9.43 % ID/g
Drug uptake [40]: 4.74 % ID/g
Drug uptake [41]: 0.7 % ID/g
Drug uptake [42]: 4.87 % ID/g
Drug uptake [43]: 4.17 %ID
Drug uptake [44]: 10.1 % ID/g

C[C@H]1CN(c2nc3ccc(F)cc3s2)CCCN1C(=O)c1cc([18F])ccc1-n1nccn1
Drug uptake [1]: 7.83 % ID/g
Drug uptake [2]: 1.77 % ID/g
Drug uptake [3]: 27.5 % ID/g
Drug uptake [4]: 2.93 % ID/g
Drug uptake [5]: 1.18 % ID/g
Drug uptake [6]: 2.32 % ID/g
Drug uptake [7]: 0.21 % ID/g
Drug uptake [8]: 0.36 % ID/g
Drug uptake [9]: 0.56 % ID/g
Drug uptake [10]: 1.03 %ID
Drug uptake [11]: 2.64 % ID/g
Drug uptake [12]: 2.48 % ID/g
Drug uptake [13]: 0.09 % ID/g
Drug uptake [14]: 1.18 %ID
Drug uptake [15]: 6.04 % ID/g
Drug uptake [16]: 0.42 % ID/g
Drug uptake [17]: 0.88 % ID/g
Drug uptake [18]: 15.4 % ID/g
Drug uptake [19]: 0.29 % ID/g
Drug uptake [20]: 1.33 % ID/g
Drug uptake [21]: 2.15 % ID/g
Drug uptake [22]: 0.55 % ID/g
Drug uptake [23]: 12.6 % ID/g
Drug uptake [24]: 2.13 %ID
Drug uptake [25]: 0.67 % ID/g
Drug uptake [26]: 1.1 % ID/g
Drug uptake [27]: 3.05 % ID/g
Drug uptake [28]: 8.38 % ID/g
Drug uptake [29]: 30.5 % ID/g
Drug uptake [30]: 5.3 % ID/g
Drug uptake [31]: 11.5 % ID/g
Drug uptake [32]: 4.37 % ID/g
Drug uptake [33]: 0.76 % ID/g
Drug uptake [34]: 3.39 % ID/g
Drug uptake [35]: 1.11 % ID/g
Drug uptake [36]: 1.5 % ID/g
Drug uptake [37]: 1.24 % ID/g
Drug uptake [38]: 0.42 % ID/g
Drug uptake [39]: 6 % ID/g
Drug uptake [40]: 4.79 % ID/g
Drug uptake [41]: 0.61 % ID/g
Drug uptake [42]: 2.88 % ID/g
Drug uptake [43]: 0.98 %ID
Drug uptake [44]: 20.4 % ID/g

Cc1ccc(-n2nccn2)c(C(=O)N2CCCN(c3nc4ccc([18F])cc4s3)C[C@@H]2C)c1
Drug uptake [1]: 10.3 % ID/g
Drug uptake [2]: 2.38 % ID/g
Drug uptake [3]: 26.9 % ID/g
Drug uptake [4]: 3.33 % ID/g
Drug uptake [5]: 4.94 % ID/g
Drug uptake [6]: 1.89 % ID/g
Drug uptake [7]: 0.42 % ID/g
Drug uptake [8]: 0.26 % ID/g
Drug uptake [9]: 0.67 % ID/g
Drug uptake [10]: 1.15 %ID
Drug uptake [11]: 2.42 % ID/g
Drug uptake [12]: 3.11 % ID/g
Drug uptake [13]: 0.11 % ID/g
Drug uptake [14]: 1.35 %ID
Drug uptake [15]: 7.6 % ID/g
Drug uptake [16]: 0.9 % ID/g
Drug uptake [17]: 0.81 % ID/g
Drug uptake [18]: 11.8 % ID/g
Drug uptake [19]: 0.22 % ID/g
Drug uptake [20]: 0.98 % ID/g
Drug uptake [21]: 2.92 % ID/g
Drug uptake [22]: 1.46 % ID/g
Drug uptake [23]: 7.53 % ID/g
Drug uptake [24]: 0.87 %ID
Drug uptake [25]: 1.23 % ID/g
Drug uptake [26]: 1.44 % ID/g
Drug uptake [27]: 2.91 % ID/g
Drug uptake [28]: 6.23 % ID/g
Drug uptake [29]: 16.3 % ID/g
Drug uptake [30]: 5.89 % ID/g
Drug uptake [31]: 13.3 % ID/g
Drug uptake [32]: 5.23 % ID/g
Drug uptake [33]: 13.2 % ID/g
Drug uptake [34]: 3.43 % ID/g
Drug uptake [35]: 1.2 % ID/g
Drug uptake [36]: 3.11 % ID/g
Drug uptake [37]: 16 % ID/g
Drug uptake [38]: 0.43 % ID/g
Drug uptake [39]: 6.58 % ID/g
Drug uptake [40]: 4.44 % ID/g
Drug uptake [41]: 0.48 % ID/g
Drug uptake [42]: 2.95 % ID/g
Drug uptake [43]: 1.65 %ID
Drug uptake [44]: 14.7 % ID/g
